Legend:
mesenteric artery = experiment: Relaxation of rabbit mesenteric artery contracted with KCl (isolated helical strip); assay type: cell-based; conditions: Oryctolagus cuniculus; concentration for 50% relaxation (complete relaxation = 100%); KCl 15-20 mM contraction; read-out: Relaxation of Mesenteric Artery ED50
Experimental: When, for example, N-(2-guanidinoethyl)-5-isoquinolinesulfonamide, i.e., compound (2) was added and a complete relaxation was designated 100%, the concentration which could bring about a relaxation of 50%, i.e., ED50 was 1 μM.
After a home bred rabbit of a Japanese species weighing about 3 Kg was subjected to bloodletting, resulting in death and then to abdominal incision, the mesenteric artery was taken out, cut into helicoids of 2 mm×25 mm and suspended in a 20 ml organ bath filled with a Krebs-Henseleit solution into which a mixed gas of 95% by volume of O2 and 5% by volume of CO2 was introduced and one end of the artery was connected with an isometric transducer. When a load of 1.5 g was applied to the artery, the contraction and the relaxation of the artery were recorded as a weight on the transducer (a product of Nippon Koden K.K., Japan, "FD Pickup TB-912T"). The relaxation of the mesenteric artery was observed by adding the isoquinolinesulfonamide derivatives and their pharmaceutically acceptable acid addition salts of this invention to the mesenteric artery at the condition of about one half of the maximum contraction with KCl concentration of 15-20 mM. When the complete relaxation of the mesenteric artery was designated 100%, the concentration of the isoquinolinesulfonamide derivatives and their pharmaceutically acceptable acid addition salts which brought about a relaxation of 50% is shown in Table 26.

femoral artery = experiment: Effect on blood flow volume in femoral artery of anesthetized dogs; assay type: in vivo, dog of mixed breed; conditions: intravenous
Experimental: (§1) The effect of the isoquinolinesulfonamide derivatives and the pharmaceutically acceptable acid addition salts of this invention on the vasodilatation of the femoral and vertebral arteries can be measured by anesthetizing a dog of mixed breed weighing 8 to 15 Kg by an intravenous administration of 35 mg/Kg of pentbarbital, providing an acute type probe (a product of Nippon Koden K.K., Japan) with the femoral and vertebral arteries, administering the isoquinolinesulfonamide derivatives and the pharmaceutically acceptable acid addition salts to the femoral vein through a polyethylene tube inserted into the femoral vein side chain and measuring the blood flow volume with an electromagnetic flowmeter (a product of Nippon Koden K.K., Japan, "MFV-1200"). 1 mg/Kg of N-(2-guanidinoethyl)-5-isoquinolinesulfonamide, i.e., Compound (2) was intravenously administered, the increased blood flow volumes in the vertebral artery and in the femoral artery were 95% and 37%. And the duration time is more than 30 minutes.
(§2) The effect on the vasodilatation of the femoral and vertebral arteries was measured by anesthetizing a dog of mixed breed weighing 8 to 15 Kg by an intravenous administration of 35 mg/Kg of pentbarbital, providing an acute type probe (a product of Nippon Koden K.K., Japan) with the femoral and vertebral arteries, administering to the femoral vein through a polyethylene tube inserted into the femoral vein side chain, measuring the blood flow volume with an electromagnetic blood flowmeter (a product of Nippon Koden K.K., Japan, "MFV-1200") and measuring the change of blood pressure.

vertebral artery = experiment: Effect on blood flow volume in vertebral artery of anesthetized dogs; assay type: in vivo, dog of mixed breed; conditions: intravenous
Experimental: as §1, §2

[1] = Hypotensive action (change of blood pressure) in anesthetized dogs; assay type: in vivo, dog of mixed breed; conditions: intravenous
Experimental: as §2

[2] = tested on: femoral and vertebral arteries; experiment: Duration time of effect in anesthetized dogs (blood flow volume / blood pressure); assay type: in vivo, dog of mixed breed; conditions: intravenous
Experimental: as §1, §2

Acute toxicity in mice = conditions: mouse, in vivo; intravenous administration, male ddY-strain mice; hydrochloric acid salt
Experimental: The acute toxicity of the N-(2-guanidinoethyl)-5-isoquinolinesulfonamide dihydrochloride was measured by giving male ddY-strain mouse and rat an intravenous administration and an oral administration.
The acute toxicity of the hydrochloric acid salt of other compounds was measured by giving male ddY-strain mice an intravenous administration.

SMILES	EC50 (mesenteric artery)	further results
N=C(N)NCCCCCNS(=O)(=O)c1cccc2cnccc12 [Compound 5, N-(5-Guanidinopentyl)-5-isoquinolinesulfonamide]	3 µM	
CCC(CNC(=N)N)NS(=O)(=O)c1cccc2cnccc12 (centres unmarked) [Compound 10, N-[(1-Guanidinomethyl)propyl]-5-isoquinolinesulfonamide]	5 µM	
N=C(N)NCC(CNS(=O)(=O)c1cccc2cnccc12)Cc1ccccc1 (centres unmarked) [Compound 34, N-(3-Guanidino-2-benzylpropyl)-5-Isoquinolinesulfonamide]	2 µM	
CC(C)C(CNS(=O)(=O)c1cccc2cnccc12)NC(=N)N (centres unmarked) [Compound 19, N-(2-Guanidino-3-methylbutyl)-5-isoquinolinesulfonamide]	15 µM	
CC(CNC(=N)N)NS(=O)(=O)c1cccc2cnccc12 (centres unmarked) [Compound 9, N-[(2-Guanidino-1-methyl)ethyl]-5-isoquinolinesulfonamide]	3 µM	
CC(CCCCC(C)NS(=O)(=O)c1cccc2cnccc12)NC(=N)N (centres unmarked) [Compound 43, N-(6-Guanidino-1-methylheptyl)-5-isoquinolinesulfonamide]	5 µM	Increased Blood Flow Volume in Femoral Artery (femoral artery; 1 mg/Kg (mm/Kg [sic])): 32%; Increased Blood Flow Volume in Vertebral Artery (vertebral artery; 1 mg/Kg (mm/Kg [sic])): 68%; Average Decreased Blood Pressure ([1]; 1 (mm/Kg [sic])): 15 mmHg; Duration Time ([2]; 1 mg/Kg (mm/Kg [sic])): 25 min; LD50 (Acute toxicity in mice): 66 mg/kg
N=C(N)NCCCCNS(=O)(=O)c1cccc2cnccc12 [Compound 4, N-(4-Guanidinobutyl)-5-isoquinolinesulfonamide]	2 µM	
O=S(=O)(NCCNC1=NCCCN1)c1cccc2cnccc12 [Compound 51, 2-[2-(5-Isoquinolinesulfonamido)ethylamino]-1,4,5,6-tetrahydropyrimidine]	25 µM	
CC(CCNS(=O)(=O)c1cccc2cnccc12)CNC(=N)N (centres unmarked) [Compound 36, N-(4-Guanidino-3-methylbutyl)-5-isoquinolinesulfonamide]	5 µM	
N=C(N)NCC(CCCNS(=O)(=O)c1cccc2cnccc12)Cc1ccccc1 (centres unmarked) [Compound 38, N-(5-Guanidino-4-benzylpentyl)-5-isoquinolinesulfonamide]	11 µM	
N=C(N)NCC(Cc1ccccc1)NS(=O)(=O)c1cccc2cnccc12 (centres unmarked) [Compound 24, N-(2-Guanidino-1-benzylethyl)-5-isoquinolinesulfonamide]	10 µM	
CC(CNC(=N)N)CNS(=O)(=O)c1cccc2cnccc12 (centres unmarked) [Compound 28, N-(3-Guanidino-2-methylpropyl)-5-isoquinolinesulfonamide]	3 µM	
N=C(N)NC(CCNS(=O)(=O)c1cccc2cnccc12)Cc1ccccc1 (centres unmarked) [Compound 35, N-(3-Guanidino-4-phenylbutyl)-5-isoquinolinesulfonamide]	5 µM	
N=C(N)NCCCCCCNS(=O)(=O)c1cccc2cnccc12 [Compound 6, N-(6-Guanidinohexyl)-5-isoquinolinesulfonamide]	4 µM	
N=C(N)NCCCC(CNS(=O)(=O)c1cccc2cnccc12)Cc1ccccc1 (centres unmarked) [Compound 39, N-(5-Guanidino-2-benzylpentyl)-5-isoquinolinesulfonamide]	13 µM	
N=C(N)NCC(CCNS(=O)(=O)c1cccc2cnccc12)c1ccccc1 (centres unmarked) [Compound 37, N-(4-Guanidino-3-phenylbutyl)-5-isoquinolinesulfonamide]	10 µM	
N=C(N)NCCNS(=O)(=O)c1cccc2cnccc12 [Compound 2, N-(2-Guanidinoethyl)-5-isoquinolinesulfonamide]	1 µM	Increased Blood Flow Volume in Femoral Artery (femoral artery; 1 mg/Kg (mm/Kg [sic])): 37%; Increased Blood Flow Volume in Vertebral Artery (vertebral artery; 1 mg/Kg (mm/Kg [sic])): 95%; Average Decreased Blood Pressure ([1]; 1 (mm/Kg [sic])): 32 mmHg; Duration Time ([2]; 1 mg/Kg (table prints mm/Kg), 1 mg/kg): > 30 min; Duration Time ([2]; 1 mg/Kg (table prints mm/Kg), listed as Compound (2), 1 mg/kg): more than 30 Min.
CCN=C(N)NCCNS(=O)(=O)c1cccc2cnccc12 [Compound 55, N-[2,(3-Ethylguanidino)ethyl]-5-isoquinolinesulfonamide]	5 µM	

SMILES	EC50 (mesenteric artery)	further results
N=C(N)NC(CNS(=O)(=O)c1cccc2cnccc12)c1ccccc1 (centres unmarked) [Compound 25, N-(2-Guanidino-2-phenylethyl)-5-isoquinolinesulfonamide]	10 µM	
N=C(N)NCCCCCCCCCCNS(=O)(=O)c1cccc2cnccc12 [Compound 8, N-(10-Guanidinodecyl)-5-isoquinolinesulfonamide]	15 µM	
O=S(=O)(NCCNC1=NCCN1)c1cccc2cnccc12 [Compound 50, 2-[2-(5-Isoquinolinesulfonamido)ethylaminol]-2-imidazoline]	20 µM	Increased Blood Flow Volume in Femoral Artery (femoral artery; 1 mg/Kg (mm/Kg [sic])): 19%; Increased Blood Flow Volume in Vertebral Artery (vertebral artery; 1 mg/Kg (mm/Kg [sic])): 65%; Average Decreased Blood Pressure ([1]; 1 (mm/Kg [sic])): 10 mmHg; Duration Time ([2]; 1 mg/Kg (mm/Kg [sic])): 21 min
CCCCC(CNC(=N)N)NS(=O)(=O)c1cccc2cnccc12 (centres unmarked) [Compound 13, N-[(1-Guanidinomethyl)pentyl]-5-isoquinolinesulfonamide]	13 µM	
CCN=C(NCC)NCCNS(=O)(=O)c1cccc2cnccc12 [Compound 54, N-[2-(2,3-Diethylguanidino)ethyl]-5-isoquinolinesulfonamide]	12 µM	
CNC(=N)NCCNS(=O)(=O)c1cccc2cnccc12 [Compound 52, N-[2-(3-Methylguanidino)ethyl]-5-isoquinolinesulfonamide]	7 µM	
N=C(N)NCCCNS(=O)(=O)c1cccc2cnccc12 [Compound 3, N-(3-Guanidinopropyl)-5-isoquinolinesulfonamide]	2 µM	
CCC(CNS(=O)(=O)c1cccc2cnccc12)NC(=N)N (centres unmarked) [Compound 17, N-(2-Guanidinobutyl)-5-isoquinolinesulfonamide]	10 µM	
N=C(N)NCC(NS(=O)(=O)c1cccc2cnccc12)c1ccccc1 (centres unmarked) [Compound 23, N-(2-Guanidino-1-phenylethyl)-5-isoquinolinesulfonamide]	8 µM	
N=C(N)NCC(CNS(=O)(=O)c1cccc2cnccc12)c1ccccc1 (centres unmarked) [Compound 31, N-(3-Guanidino-2-phenylpropyl)-5-isoquinolinesulfonamide]	2 µM	Increased Blood Flow Volume in Femoral Artery (femoral artery; 1 mg/Kg (mm/Kg [sic])): 30%; Increased Blood Flow Volume in Vertebral Artery (vertebral artery; 1 mg/Kg (mm/Kg [sic])): 75%; Average Decreased Blood Pressure ([1]; 1 (mm/Kg [sic])): 15 mmHg; Duration Time ([2]; 1 mg/Kg (mm/Kg [sic])): 28 min; LD50 (Acute toxicity in mice): 80 mg/kg
N=C(N)N1CCN(S(=O)(=O)c2cccc3cnccc23)CC1 [Compound 44, 4-Amidino-1-(5-isoquinolinesulfonyl)piperazine]	0.6 µM	Increased Blood Flow Volume in Femoral Artery (femoral artery; 0.5 (mm/Kg [sic])): 29%; Increased Blood Flow Volume in Vertebral Artery (vertebral artery; 0.5 (mm/Kg [sic])): 60%; Average Decreased Blood Pressure ([1]; 0.5 (mm/Kg [sic])): 50 mmHg; Duration Time ([2]; 0.5 (mm/Kg [sic])): > 30 min; LD50 (Acute toxicity in mice): 12 mg/kg
N=C(N)N1CCCN(S(=O)(=O)c2cccc3cnccc23)CC1 [Compound 45, 4-Amidino-1-(5-isoquinolinesulfonyl)homopiperazine]	2 µM	
CC1CN(S(=O)(=O)c2cccc3cnccc23)C(C)CN1C(=N)N (centres unmarked) [Compound 49, 4-Amidino-2,5-dimethyl-1-(5-isoquinolinesulfonyl)piperazine]	1 µM	
CN=C(NC)NCCNS(=O)(=O)c1cccc2cnccc12 [Compound 53, N-[2-(2,3-Dimethylguanidino)ethyl]-5-isoquinolinesulfonamide]	10 µM	
N=C(N)NCCCCCCCCNS(=O)(=O)c1cccc2cnccc12 [Compound 7, N-(8-Guanidinooctyl)-5-isoquinolinesulfonamide]	10 µM	
CC(CNS(=O)(=O)c1cccc2cnccc12)NC(=N)N (centres unmarked) [Compound 16, N-(2-Guanidinopropyl)-5-isoquinolinesulfonamide]	3 µM	
CC(NC(=N)N)C(C)NS(=O)(=O)c1cccc2cnccc12 (centres unmarked) [Compound 41, N-(2-Guanidino-1-methylpropyl)-5-isoquinolinesulfonamide]	8 µM	
